“Also recorded” adds a separate entry of the source. Where two headings read alike, the source gives them in different places.
Tests used:
sarcoma-180 = assay: Antitumor activity, life prolongation in sarcoma-180-carcinoma-bearing ICR mice; type: in vivo; details: intraperitoneal, 1-5 days and 7-11 days
Source text: Trienomycin A, B or C is administrated intraperitoneally in sarcoma-180-carcinoma-bearing ICR mice for 1-5 days and 7-11 days. The life prolongation effects are observed as shown in the following: […]

Solubility = type: physicochemical
HeLa S3 cells = assay: Cytocidal action on HeLa S3 cells; details: for growth inhibitory activities: HeLa S3 cells
[1] = system: sarcoma-180 carcinoma cells; assay: Growth inhibition of sarcoma-180 carcinoma cells; type: cell-based
Nature (acidity) = type: physicochemical
fungi [2] = assay: Antifungal activity (in words); type: cell-based; details: trienomycins
Stability = type: physicochemical
[3] = system: Piricularia oryzae KF 180; assay: microbe, parasite or virus in culture; type: cell-based; details: at 1 mg/ml; read-out: Inhibitory zone
fungi [4] = details: various fungi; known antibiotics; cited from earlier work
[5] = chloroform, dichloromethane, tetrahydrofuran, ethyl acetate, butyl acetate, acetone, methanol, ethanol
[6] = acidic condition at ambient temperature

SMILES	Life Prolongation Ratio (sarcoma-180; 10 mg/kg/day)	Life Prolongation Ratio (sarcoma-180; 20 mg/kg/day)	Solubility (Solubility; [5])	Solubility (Solubility; hexane, water)	death of the HeLa S3 cells (HeLa S3 cells; 1.0 μg/ml)	growth inhibitory activities (HeLa S3 cells)	growth inhibitory activities [1]	Nature (Nature (acidity))	antifungal activity (fungi [2])	Stability (Stability; [6])	Stability (Stability; alkaline condition over pH 10)	zone of inhibition at 1000 µg/mL [3]	death of the HeLa S3 cells (HeLa S3 cells; 2.0 μg/ml)	antifungal activity (fungi [4])
COC1C=CC=CC=CCC(OC(=O)C(C)NC(=O)C2CCCCC2)C(C)C(O)C(C)=CCCc2cc(O)cc(c2)NC(=O)C1 (stereo not drawn) [Trienomycin A]	33%	76%	Soluble	Insoluble	death of the HeLa S3 cells	growth inhibitory activities	growth inhibitory activities	weakly acidic substance; also recorded: weak acidic substances	exhibit antifungal activity against some kind of fungi	Stable	Instable	20 mm	–	–
COC1C=CC=CC=CCC(OC(=O)C(C)NC(=O)CC(C)C)C(C)C(O)C(C)=CCCc2cc(O)cc(c2)NC(=O)C1 (stereo not drawn) [Trienomycin B]	45%	80%	Soluble	Insoluble	–	growth inhibitory activities	growth inhibitory activities	weakly acidic substance; also recorded: weak acidic substances	exhibit antifungal activity against some kind of fungi	Stable	Instable	15 mm	death of the HeLa S3 cells	–
CCC(C)C(=O)NC(C)C(=O)OC1CC=CC=CC=CC(OC)CC(=O)Nc2cc(O)cc(c2)CCC=C(C)C(O)C1C (stereo not drawn) [Trienomycin C]	50%	110%	Soluble	Insoluble	–	growth inhibitory activities	growth inhibitory activities	weakly acidic substance; also recorded: weak acidic substances	exhibit antifungal activity against some kind of fungi	Stable	Instable	12 mm	death of the HeLa S3 cells	–
CO[C@@H]1/C=C/C=C/C=C\C[C@H](OC(=O)[C@@H](C)NC(=O)CC(C)C)[C@@H](C)[C@H](O)/C(C)=C/CCC2=CC(=O)C=C(NC(=O)C1)C2=O [ansatrienin A3]	–	–	–	–	–	–	–	–	–	–	–	–	–	exhibit antifungal activity against various fungi
COC1C=CC=CC=CCC(OC(=O)C(C)NC(=O)C2CCCCC2)C(C)C(O)C(C)=CCCc2cc(O)cc(c2O)NC(=O)C1 (stereo not drawn) [mycotrienin II]	–	–	–	–	–	–	–	–	–	–	–	–	–	exhibit antifungal activity against various fungi
COC1C=CC=CC=CCC(OC(=O)C(C)NC(=O)C2CCCCC2)C(C)C(O)C(C)=CCCC2=CC(=O)C=C(NC(=O)C1)C2=O (stereo not drawn) [mycotrienin I]	–	–	–	–	–	–	–	–	–	–	–	–	–	exhibit antifungal activity against various fungi

Reference: patent US5109133A, “Antibiotic trienomycins and their production” (priority 1985, dated 1992)
